Article PMC4786809, “Determination of cyanidin 3-glucoside in rat brain, liver and kidneys by UPLC/MS-MS and its application to a short-term pharmacokinetic study” (Scientific Reports, 2016)

Legend:
Assay type in all cases: in vivo, Wistar rats
[1] = Urinary excretion after intravenous C3G
Source text: (§1) Twenty-two male Wistar rats (Rattus Norvegicus, Harlan Italy S.r.l.), of same age (15 weeks), 293–390 g of body weight, were used. The rats were randomly divided into 5 groups, according to the time that elapsed after intravenous administration of the test compound, and one control group. Each time point was represented by four biological replicates. All animals were allowed to acclimate to the animal facility of the University of Trieste for at least 2 week before studies were initiated. The experimental design was vetted and approved by the bioethical committee of the University of Trieste (internal code 140PAS14), according to the provisions of the European Community Council Directive 2010/63/EU[39]. The methods were carried out in accordance with the approved guidelines. The animals (n = 22) were maintained in cages in a room at 23 ± 2 °C, 50–60% humidity with a 12-hour light-dark cycle. The night before the experiment, food was withdrawn from the cages but water was given ad libitum. On the day of the experiment, the rats were anesthetized with intra-peritoneal administration of tiletamine/zolazepam (1:1, 25 mg/kg body weight) and xylazine (10 mg/kg body weight). During anaesthesia (10 min in all cases), the heart and ventilation rate were monitored. The rats were placed on their backs, with the ventral side up and with the legs spread separately on a thermo-isolated support. The penis was extruded by sliding the prepuce downwards. The dorsal penis vein was then seen along both sides of the penis and exactly 10 min after anaesthesia 0.2 mL PBS without (control group) or with (treated group) 668 nmol cyanidin 3-glucoside (C3G) in PBS was injected using a 24-G hypodermic needle. Then the injection site was pressed with a swab for a few seconds, and the glans was encouraged to retract to prevent further bleeding. One min before sacrificing the rats, sodium heparin (0.1 ml, 500 IU) was injected again into the dorsal penis vein, exposed in the same way. […] Blood draining and excision of the organs were carried out according to the literature. In detail, blood was collected from the neck of rats hold upside down, immediately after their decapitation, which happened at the time points sharp. Exsanguination took 5 seconds; laparotomy and excision of the liver and the kidneys took 5 more seconds. The post-decapitation procedures were standardised. Urine was collected through the urinary bladder with a syringe before decapitation. Kidneys, liver and brain were washed with mQ water, immediately frozen in liquid nitrogen and stored at −80 °C.
(§2) Immediately after sampling, 5 mL of blood were transferred into ice-cold (−20 °C), deoxygenated aqueous 95% methanol in a ratio 1:9 (v/v). The urine was weighted and transferred into ice-cold, deoxygenated aqueous 95% methanol at a ratio of 1:9 (w/v). Frozen kidneys, liver and brain were grounded under cryogenic conditions (−196 °C) to 5 μm particles in a CryoMill (Retsch, Germany), using a single 25 mm i. d. steel ball (30 seconds, 25/sec frequency). The pulverized tissue was rapidly transferred (without thawing) into ice-cold, deoxygenated aqueous 95% methanol at a ratio of 1:9 (w/v). Cinnamic acid-d5, as internal standard, was dissolved in the aqueous methanol at concentration of 0.1 mg/L for the monitoring of the extraction protocol in biofluids and tissues.
(§3) All samples were extracted with an orbital shaker for 10 min at room temperature. The methanol extracts were then centrifuged for 5 min at 3600 rpm at 4 °C, decanted under a stream of nitrogen in 50 mL dark glass vessels and stored at −80 °C. Clean-up of extracted samples in methanol was performed by solid phase extraction (SPE), as previously described. Briefly, 5 mL of extracted samples were evaporated on a rotary evaporator and reconstituted in 10 mL of acidified water. Anthocyanins were extracted by solid-phase adsorption onto a hydrophobic matrix (Sep-Pak C18, 0.35 g, Waters, Milford, MA). […]

[2] = Plasma concentrations and pharmacokinetics after intravenous bolus of C3G (NCA and two-compartment model); settings: male, Wistar, rat, plasma, iv; for concentration at 2 min: 2 min after i.v. 668 nmol C3G; for concentration at 2 min / concentration at 0.25 min / concentration at 5 min / concentration at 15 min / concentration at 20 min: mean ± SEM n=4; for AUC0-t / half-life: i.v. 668 nmol C3G; for AUC0-t: read-out: AUC0–20 (converted); for half-life: 668 nmol, read-out: Half life; for concentration at 0.25 min: 0.25 min after i.v. 668 nmol C3G; for concentration at 5 min: 5 min after i.v. 668 nmol C3G; for concentration at 15 min: 15 min after i.v. 668 nmol C3G; for concentration at 20 min: 20 min after i.v. 668 nmol C3G
Source text: as §1, §2, §3

[3] = Brain concentrations and tissue pharmacokinetics after intravenous C3G; settings: for AUC0-t: i.v. 668 nmol C3G
Source text: as §1, §2, §3

[4] = Liver concentrations and tissue pharmacokinetics after intravenous C3G; settings: for AUC0-t: i.v. 668 nmol C3G
Source text: as §1, §2, §3

[5] = Kidney concentrations and tissue pharmacokinetics after intravenous C3G; settings: for MTTK (Mean Transit time in kidneys) / AUC0-t / half-life: kidneys; for half-life: iv
Source text: as §1, §2, §3

[6] = 0.25 min after i.v. 668 nmol C3G
[7] = 0.25–20 min after i.v. 668 nmol C3G
[8] = 0.25 min after i.v. 668 nmol C3G, mean ± SEM n=4
[9] = male, Wistar, rat, kidney, 668 nmol

Urine concentration [1, 6] [pmol/g] | Urine concentration ([1]; 2 min after i.v. 668 nmol C3G) [pmol/g] | Urine concentration ([1]; 5 min after i.v. 668 nmol C3G) [pmol/g] | Urine concentration ([1]; 15 min after i.v. 668 nmol C3G) [pmol/g] | Urine concentration ([1]; 20 min after i.v. 668 nmol C3G) [pmol/g] | concentration at 2 min [2] [nM] | AUC0-t [2] [nM·h] | half-life [2] [min] | concentration at 0.25 min [2] [nM] | concentration at 5 min [2] [nM] | concentration at 15 min [2] [nM] | concentration at 20 min [2] [nM] | Mean concentration in brain ([3]; 2 min after i.v. 668 nmol C3G) [pmol/g] | Mean concentration in brain ([3]; 5 min after i.v. 668 nmol C3G) [pmol/g] | Mean concentration in liver [4, 8] [pmol/g] | Mean concentration in liver ([4]; 2 min after i.v. 668 nmol C3G) [pmol/g] | Mean concentration in liver ([4]; 5 min after i.v. 668 nmol C3G) [pmol/g] | Mean concentration in liver ([4]; 15 min after i.v. 668 nmol C3G) [pmol/g] | Mean concentration in liver ([4]; 20 min after i.v. 668 nmol C3G) [pmol/g] | AUC0-t ([4]; liver) [pmol·min/g] | SMILES | also measured
20 ± 10 | 30 ± 0 | 50 ± 10 | 20 ± 10 | 30 ± 10 | 12.8 ± 10.5 |  |  |  |  |  |  |  |  |  |  |  |  |  |  | OC[C@H]1O[C@@H](Oc2cc3c(O)cc(O)cc3[o+]c2-c2cc(O)c(O)c(O)c2)[C@H](O)[C@@H](O)[C@@H]1O [D3G, Delphinidin-3-O-β-glucoside] | 
28.35 ± 17.87 | 9.57 ± 4.52 | 5.15 ± 1.88 | 3.17 ± 1.64 |  | 95.8 ± 61.7 | 5.72 | 5.29 | 9.13 ± 3.46 | 16.4 ± 13.1 | 3.67 ± 0.14 | 8.6 ± 3.88 |  |  |  |  |  |  |  |  | COc1cc(-c2[o+]c3cc(O)cc(O)c3cc2O[C@@H]2O[C@H](CO)[C@@H](O)[C@H](O)[C@H]2O)cc(OC)c1O [M3G, Malvidin-3-O-β-glucoside] | 
1.57 ± 0.40 | 7.92 ± 2.59 | 47.09 ± 4.16 | 33.22 ± 16.09 | 20.98 ± 5.61 | 1.89 ± 0.17 | 0.673 | 44.7 | 4.5 ± 0.62 | 2.01 ± 0.28 | 1.9 ± 0.19 | 1.55 ± 0.13 |  |  |  |  |  |  |  |  | OC[C@H]1O[C@@H](Oc2cc3c(O)cc(O)cc3[o+]c2-c2ccc(O)cc2)[C@H](O)[C@@H](O)[C@@H]1O [PG3G, Pelargonidin-3-O-β-glucoside] | 
10 ± 0 | 1480 ± 410 | 6540 ± 330 | 5670 ± 2240 | 5160 ± 1110 | 13.1 ± 2.35 | 2.91 | 8.16 | 33.7 ± 5.51 | 12.3 ± 1.37 | 3.73 ± 0.94 | 3.4 ± 0.22 | 2.07 ± 1.18 | 0.70 ± 0.30 | 539.38 ± 71.33 | 317.61 ± 35.86 | 364.74 ± 44.85 | 216.10 ± 36.06 | 100.84 ± 6.33 | 5610.12 | COc1cc(-c2[o+]c3cc(O)cc(O)c3cc2O[C@@H]2O[C@H](CO)[C@@H](O)[C@H](O)[C@H]2O)ccc1O [PN3G, Peonidin-3-O-β-glucoside] | Amounts found in brain (range over sampling times) [3, 7]: 0.37 to 2.07 pmol/g; Mean concentration in brain ([3]; 15 min after i.v. 668 nmol C3G): 0.40 ± 0.38 pmol/g; Mean concentration in brain ([3]; 20 min after i.v. 668 nmol C3G): 0.37 ± 0.13 pmol/g; MTTB (Mean Transit Time in the brain) ([3]; brain): 8.61 min; AUC0-t ([3]; brain): 17.10 pmol·min/g; half-life ([3]; male, Wistar, rat, brain, iv, 668 nmol): 15.6 min; Kp ([3]; male, Wistar, rat, intravenous, 668 nmol, brain vs plasma, read-out: AUC in brain as share of that in plasma): 0.0978; Amounts found in liver (range over sampling times) [4, 7]: 100.84 to 539.38 pmol/g; MTTL (Mean Transit Time in the liver) ([4]; liver): 3.93 min; Kp ([4]; male, Wistar, rat, intravenous, 668 nmol, liver vs plasma, read-out: AUC in liver relative to plasma): 32.1; half-life ([4]; male, Wistar, rat, liver, iv, 668 nmol, read-out: Half-life): 9.99 min; Mean concentration in kidneys [5, 8]: 1.99 ± 0.55 nmol/g; Mean concentration in kidneys ([5]; 2 min after i.v. 668 nmol C3G): 1.56 ± 0.18 nmol/g; Mean concentration in kidneys ([5]; 5 min after i.v. 668 nmol C3G): 0.85 ± 0.08 nmol/g; Mean concentration in kidneys ([5]; 15 min after i.v. 668 nmol C3G): 0.89 ± 0.22 nmol/g; Mean concentration in kidneys ([5]; 20 min after i.v. 668 nmol C3G): 0.90 ± 0.14 nmol/g; MTTK (Mean Transit time in kidneys) [5]: 23.11 min; AUC0-t ([5]; i.v. 668 nmol C3G): 20.36 nmol·min/g; Kp ([5]; male, Wistar, rat, kidney, intravenous, 668 nmol, kidneys vs plasma, read-out: AUC in kidneys relative to plasma): 116; half-life [5, 9]: 20.8 min
4.58 ± 2.84 | 3.30 ± 1.59 |  |  |  | 4.95 ± 3.16 |  |  | 2.2 ± 1.05 | 1.71 ± 1.39 |  |  | 1.15 ± 0.62 | 1.01 ± 0.46 | 1.23 ± 0.59 | 2.42 ± 0.08 | 1.09 ± 0.52 | 1.60 ± 0.44 | 3.06 ± 0.19 | 33.85 | COc1cc(-c2[o+]c3cc(O)cc(O)c3cc2O[C@@H]2O[C@H](CO)[C@@H](O)[C@H](O)[C@H]2O)cc(O)c1O [PT3G, Petunidin-3-O-β-glucoside] | Mean concentration in brain ([3]; 15 min after i.v. 668 nmol C3G): 2.45 ± 0.22 pmol/g; Mean concentration in brain ([3]; 20 min after i.v. 668 nmol C3G): 1.90 ± 0.60 pmol/g; AUC0-t ([3]; brain): 32.42 pmol·min/g; Mean concentration in kidneys [5, 6]: 0.00204 ± 0.00059 nmol/g; Mean concentration in kidneys ([5]; 2 min after i.v. 668 nmol C3G): 0.00282 ± 0.00028 nmol/g; Mean concentration in kidneys ([5]; 5 min after i.v. 668 nmol C3G): 0.0024 ± 0.00013 nmol/g; Mean concentration in kidneys ([5]; 15 min after i.v. 668 nmol C3G): 0.00229 ± 7e-05 nmol/g; Mean concentration in kidneys ([5]; 20 min after i.v. 668 nmol C3G): 0.00253 ± 0.00026 nmol/g; MTTK (Mean Transit time in kidneys) [5]: 187.44 min; AUC0-t ([5]; unit per footnote *): 48.13 ^* pmol g^–1 min^–1; half-life [5, 9]: 135 min
 |  |  |  |  |  |  |  |  |  |  |  |  |  | 13.86 ± 4.32 | 6.19 ± 2.09 | 15.85 ± 1.82 | 1.39 ± 1.14 | 0.64 ± 0.25 | 145.57 | COc1ccc(-c2[o+]c3cc(O)cc(O)c3cc2O[C@@H]2O[C@H](CO)[C@@H](O)[C@H](O)[C@H]2O)cc1O [isoPN3G] | half-life ([4]; liver): 3.18 min; Peak relative to PN3G ([4]; liver only): around 2.59 % of PN3G
